# Measurements: patent US7745401B2, “Antifungal peptides and methods of use thereof” (The Board of Regents of the University of Oklahoma, priority 2005, dated 2010)
# “Also recorded” adds a separate entry of the source. Where a SMILES comes first, the peptide text is derived from it.
# Experiments:
# Candida albicans = assay type: cell-based
# Method: (§1) Isolates used in this study included Candida albicans (ATCC 28367), three fluconazole sensitive mucosal isolates of C. albicans, designated A-22, A-111 and A-155, three fluconazole resistant mucosal isolates of C. albicans designated A-46, A-5, and A-20, and a blood isolate of C. albicans designated WDO. Isolates were stored frozen at −70° C. and streaked onto Sabouraud Dextrose Agar (Sigma, St. Louis, Mo.) plates and maintained on plates at 4° C., with subculturing onto new plates approximately every 10 days for the duration of the studies. Fluconazole resistance was evaluated. Three clinical isolates of C. glabrata, two clinical isolates of C. dubliniensis, and single isolate each of C. krusei, C. guilliermondii, C. parapsilosis, C. pseudotropicalis and C. tropicalis and two isolates of Saccharomyces cerevisiae were also used in this study and were maintained on Sabouraud Dextrose agar plates at 4° C. A single yeast colony was cultured overnight at 33° C. in 1% phytone peptone broth (Becton Dickinson, Sparks Md.) with 0.1% D-glucose (Sigma).
# Stock solutions of all peptides were made up at concentrations of 1 mg/ml in sterile endotoxin-free water for irrigation (Baxter, Deerfield, Ill.). Subsequent dilutions were all made in tryptone saline pH 5.5 (Shafer et al., Infect Immun, 1984). An aliquot (100 μl) of an overnight culture of a single colony grown at 33° C. in 1% phytone peptone broth with 0.1% glucose was subcultured in 5 ml of 1% phytone peptone broth with 0.1% glucose and incubated in a shaking water bath (80 oscillations per min, Precision, Winchester, Va.) for 90 min at 33° C. to yield a logarithmic culture. […] The optical density was read and the culture adjusted to 500 blastospores/100 μl in tryptone saline pH 5.5 (Shafer et al., Infect Immun, 1984). To 100 μl of the organism suspension in a 96 well sterile polystyrene microtiter plate (Becton Dickinson, Franklin Lakes, N.J.) was added 100 μl of the peptide (final concentrations 400 μg/ml and 200 μg/ml) or 100 μl of tryptone saline. The latter served as a control. The microtiter plate was incubated at 37° C. for 4 hr and 100 μl of the contents from each well was plated on Sabouraud Dextrose agar plates and incubated at 37° C. overnight. The colony forming units (cfu) were counted and the fungicidal activity was expressed as percent killed and calculated according to the following equation: [(control cfu−test cfu)/control cfu]×100=% killed. Control cfu is indicated by the number of colonies present after […] of incubation in tryptone saline alone in the absence of peptide. Test cfu is determined by counting the number of colonies present after incubation in tryptone saline containing the peptide. Each experimental point was performed in triplicate.
# C. albicans (ATCC 28367) was used to standardize the in vitro killing assay. We explored the optimal growth conditions (temperature and time, 25° C. for 5 h and 33° C. for 90 min), numbers of blastospores per well (200, 400, 500, 600, 800, and 1000 cfu), range of peptide concentrations (750, 500, 400, 200 and 100 μg/ml) and the contact time between peptide and Candida (1, 2 and 4 hr) for killing to occur. […] The 90 minute incubation was more convenient technically and was therefore employed routinely. The optimum numbers of cfu per well was determined to be 500 and an incubation time of 4 hr at 37° C. between Candida and peptide was required to obtain optimal killing.
# C. tropicalis = experiment: In vitro candidacidal assay, C. tropicalis; assay type: cell-based; details: 400 μg/ml (150 μM)
# Method: as §1
# (§2) Stock solutions of all peptides were made up at concentrations of 1 mg/ml in sterile endotoxin-free water for irrigation (Baxter, Deerfield, Ill.). Subsequent dilutions were all made in tryptone saline pH 5.5 (Shafer et al., Infect Immun, 1984). […] The optical density was read and the culture adjusted to 500 blastospores/100 μl in tryptone saline pH 5.5 (Shafer et al., Infect Immun, 1984). […] The colony forming units (cfu) were counted and the fungicidal activity was expressed as percent killed and calculated according to the following equation: [(control cfu−test cfu)/control cfu]×100=% killed. […] Test cfu is determined by counting the number of colonies present after incubation in tryptone saline containing the peptide. […]
# C. dubliniensis = experiment: In vitro candidacidal assay, C. dubliniensis; assay type: cell-based; details: two isolates; 400 μg/ml (150 μM)
# Method: as §1, §2
# C. glabrata = experiment: In vitro candidacidal assay, C. glabrata; assay type: cell-based; details: one isolate of three; 400 μg/ml (150 μM)
# Method: as §1, §2
# [1] = system: C. albicans (fluconazole sensitive isolate); experiment: FUN-1 vital dye yeast viability, confocal microscopy, C. albicans; assay type: cell-based, Candida albicans; details: 400 μg/ml, 37° C. for 2 hr
# Method: Yeast viability was also assessed using the FUN-1 Live/Dead Yeast Viability Kit (Molecular Probes, Eugene, Oreg.). The methodology employed was essentially according to the protocol provided by the vendor for use with fluorescent microscopy. Briefly, yeast cultures were prepared exactly as stated above. C. glabrata, C. pseudotropicalis, C. albicans (fluconazole sensitive isolate) and S. cerevisiae (5×10^5 cfu in 100 μl of tryptone saline) were incubated (37° C. for 2 hr) in the absence or presence of peptide (CAP37(20-44)nat and CAP37(20-44)ser26/42) at a final concentration of 400 μg/ml. At the end of the incubation period, the samples were transferred to microcentrifuge tubes and centrifuged (10,000×g for 3 min at room temperature). The supernatant was removed and the pellet resuspended in 25 μl of GH solution (2% D-glucose containing 10 mM Na-HEPES, pH 7.2) as described in the technical data sheet provided by the vendor. A working solution of the FUN-1 reagent (100 μl of 10 μM) was prepared from 10 mM stock solution and 25 μl (final concentration 5 μM) added to the yeast and incubated at room temperature for 30 min. A sample (10 μl) was placed on a microscope slide and staining observed under a Leica TCS NT confocal microscope using Ar-488 and Kr-568 Lasers and 63x Plan APO 1.2 NA water immersion objective. Images were scanned and analyzed using the Leica TCS software.
# [2] = system: Salmonella typhimurium, Escherichia coli, and Pseudomonas aeruginosa; details: Gram negative organisms; cited from earlier work
# [3] = system: E. coli lipopolysaccharide (LPS); details: conscious rat; cited from earlier work
structure (smiles),measurement,setting,value
"CC[C@H](C)[C@H](NC(=O)[C@H](CC(C)C)NC(=O)[C@H](C)NC(=O)CNC(=O)CNC(=O)[C@H](CS)NC(=O)[C@H](Cc1ccccc1)NC(=O)[C@H](Cc1c[nH]cn1)NC(=O)[C@H](CCCNC(=N)N)NC(=O)CNC(=O)[C@H](CCC(N)=O)NC(=O)[C@@H](N)CC(N)=O)C(=O)N[C@@H](Cc1c[nH]cn1)C(=O)N[C@@H](C)C(=O)N[C@@H](CCCNC(=N)N)C(=O)N[C@@H](Cc1ccccc1)C(=O)N[C@H](C(=O)N[C@@H](CCSC)C(=O)N[C@H](C(=O)N[C@@H](C)C(=O)N[C@@H](C)C(=O)N[C@@H](CO)C(=O)N[C@@H](CS)C(=O)N[C@@H](Cc1ccccc1)C(=O)N[C@@H](CCC(N)=O)C(=O)O)[C@@H](C)O)C(C)C [CAP37(20-44)nat, NQGRHFCGGALIHARFVMTAASCFQ] (H-NQGRHFCGGALIHARFVMTAASCFQ-OH; N-terminus and C-terminus assumed)",killing,Candida albicans,> 75%
same,killing with varying peptide concentrations,"Candida albicans; C. albicans ATCC 28367, 750, 500, 400, 200 and 100 μg/ml",Dose dependent killing
same,killing of blood isolate of Candida,"Candida albicans; blood isolate of C. albicans, 400 μg/ml (150 μM)",killed
same,peptide concentration required for activity,Candida albicans; fluconazole resistant isolate A-46,400 µg/mL
same,activity at the lower concentration,"Candida albicans; fluconazole resistant isolates A-5 and A-20, 200 μg/ml or 75 μM",significant activity
same,activity against C. albicans,Candida albicans; in vitro killing efficacy,significant activity
same,fungicidal or fungistatic effect,"Candida albicans; isolates A-5, A-20, A-46 and A-155, viable colony counts versus starting inoculum",fungicidal rather than fungistatic
same,activity against fluconazole resistant isolates,Candida albicans; isolates A-5 and A-20,highly active
same,activity against fluconazole sensitive isolates,"Candida albicans; isolates A-155, A-22 and A-111, 400 μg/ml",strongly active
same,activity against C. tropicalis,C. tropicalis,killed
same,activity against C. dubliniensis,C. dubliniensis,"effective against both isolates of C. dubliniensis and one isolate of C. glabrata, although to a lesser extent"
same,activity against C. glabrata,C. glabrata,"effective against both isolates of C. dubliniensis and one isolate of C. glabrata, although to a lesser extent"
same,blastoconidia stained green or green-yellow (dead),[1],70-80%
same,bactericidal activity,[2],potent bactericidal activity; also recorded: mimicked the antimicrobial activity of the native molecule
same,efficacy against lethal effects of LPS,[3],attenuating the lethal effects
